Source: patent US4327097A, “Novel penicillins” (Toyama Chemical Co., Ltd., priority 1974, dated 1982)
Converted amounts (≈) assume the structure as drawn.

How the values were obtained:
Type in all cases: cell-based
Pseudomonas aeruginosa = assay: MIC against clinical isolates; details: unit assumed; for MIC Pseudomonas aeruginosa GN / MIC Pseudomonas aeruginosa GN4 / MIC Pseudomonas aeruginosa GN 82 / MIC Pseudomonas aeruginosa GN 221 / MIC Pseudomonas aeruginosa GN 376 / MIC Pseudomonas aeruginosa GN 1035 / MIC Pseudomonas aeruginosa GN 1091 / MIC Pseudomonas aeruginosa GN 2565: Table 6-3, clinical isolate; for MIC Pseudomonas aeruginosa GN: strain number not given; for MIC Pseudomonas aeruginosa S-1: Table 6-4, clinical isolate
Staphylococcus aureus = assay: MIC against clinical isolates; details: Table 6-1, clinical isolate; unit assumed
Proteus vulgaris = assay: MIC against clinical isolates; details: Table 6-5, clinical isolate; unit assumed
Proteus rettgeri = assay: MIC against clinical isolates; details: Table 6-5, clinical isolate; unit assumed
Klebsiella pneumoniae [1] = assay: MIC, plate method, standard strains; details: Table 4, standard strain; unit assumed
Method in brief: (§1)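 Agar plate dilution on Heart infusion agar (pH 7.4); inoculum 10^4 cells per plate from a 10^6 cells/ml suspension. MIC taken as the lowest concentration inhibiting growth.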

[2] = test system: Staphylococcus aureus 209p; assay: MIC, plate method, standard strains; details: Table 4, standard strain; unit assumed
Method in brief: as §1

Escherichia coli NIHJ = assay: MIC, plate method, standard strains; details: Table 4, standard strain; unit assumed
Method in brief: as §1

Proteus vulgaris 3027 = assay: MIC, plate method, standard strains; details: Table 4, standard strain; unit assumed
Method in brief: as §1

[3] = test system: Pseudomonas aeruginosa I.F.O.; assay: MIC, plate method, standard strains; details: Table 4, standard strain; unit assumed
Method in brief: as §1

Escherichia coli = assay: MIC against clinical isolates; details: Table 6-2, clinical isolate; unit assumed
Proteus mirabilis = assay: MIC against clinical isolates; details: Table 6-5, clinical isolate; unit assumed
Klebsiella pneumoniae [4] = assay: MIC against clinical isolates; details: Table 6-4, clinical isolate; unit assumed
Proteus morganii = assay: MIC against clinical isolates; details: Table 6-5, clinical isolate; unit assumed

| SMILES | MIC Pseudomonas aeruginosa GN4 (Pseudomonas aeruginosa) | MIC Pseudomonas aeruginosa GN 82 (Pseudomonas aeruginosa) | MIC Pseudomonas aeruginosa GN 221 (Pseudomonas aeruginosa) | MIC Pseudomonas aeruginosa GN 376 (Pseudomonas aeruginosa) | MIC Pseudomonas aeruginosa GN 1035 (Pseudomonas aeruginosa) | MIC Pseudomonas aeruginosa GN 1091 (Pseudomonas aeruginosa) | MIC Pseudomonas aeruginosa GN 2565 (Pseudomonas aeruginosa) | MIC Pseudomonas aeruginosa S-1 (Pseudomonas aeruginosa) | MIC Staphylococcus aureus F-1 (Staphylococcus aureus) | MIC Staphylococcus aureus MS 8588 (Staphylococcus aureus) | MIC Staphylococcus aureus MS 8596 (Staphylococcus aureus) | MIC Staphylococcus aureus MS 8619 (Staphylococcus aureus) | MIC Staphylococcus aureus MS 8684 (Staphylococcus aureus) | MIC Proteus vulgaris (Proteus vulgaris) | MIC Proteus rettgeri (Proteus rettgeri) | MIC Klebsiella pneumoniae (Klebsiella pneumoniae [1]) | MIC Staphylococcus aureus 209p [2] | MIC Escherichia coli NIHJ (Escherichia coli NIHJ) | MIC Proteus vulgaris 3027 (Proteus vulgaris 3027) | MIC Pseudomonas aeruginosa I.F.O. [3] | also measured |
| --- | --- | --- | --- | --- | --- | --- | --- | --- | --- | --- | --- | --- | --- | --- | --- | --- | --- | --- | --- | --- | --- |
| CCN1CCN(C(=O)NC(C(=O)NC2C(=O)N3C(C(=O)O)=C(CSc4nnnn4CC)CSC23)c2ccccc2)C(=O)C1=O (single isomer, unassigned) [Compound No. 77] | 25 µg/mL (≈ 38.8 µM) | 25 µg/mL (≈ 38.8 µM) | 12.5 µg/mL (≈ 19.4 µM) | 25 µg/mL (≈ 38.8 µM) | 50 µg/mL (≈ 77.7 µM) | 25 µg/mL (≈ 38.8 µM) | 50 µg/mL (≈ 77.7 µM) | 50 µg/mL (≈ 77.7 µM) | 1.56 µg/mL (≈ 2.42 µM) | 1.56 µg/mL (≈ 2.42 µM) | 1.56 µg/mL (≈ 2.42 µM) | 1.56 µg/mL (≈ 2.42 µM) | 1.56 µg/mL (≈ 2.42 µM) | 0.78 µg/mL (≈ 1.21 µM) | 1.56 µg/mL (≈ 2.42 µM) | 0.4 µg/mL (≈ 0.621 µM) | 1.57 µg/mL (≈ 2.44 µM) | < 0.1 µg/mL | 1.57 µg/mL (≈ 2.44 µM) | 25 µg/mL (≈ 38.8 µM) | MIC Pseudomonas aeruginosa GN (Pseudomonas aeruginosa): 25 µg/mL (≈ 38.8 µM); MIC Escherichia coli GN 3435 (Escherichia coli): 1.56 µg/mL (≈ 2.42 µM); MIC Escherichia coli GN 3452 (Escherichia coli): 1.56 µg/mL (≈ 2.42 µM); MIC Escherichia coli GN 3465 (Escherichia coli): 6.25 µg/mL (≈ 9.71 µM); MIC Escherichia coli K-2 (Escherichia coli): 3.13 µg/mL (≈ 4.86 µM); MIC Escherichia coli K-4 (Escherichia coli): 1.56 µg/mL (≈ 2.42 µM); MIC Proteus mirabilis (Proteus mirabilis): 1.56 µg/mL (≈ 2.42 µM); MIC Klebsiella pneumoniae GN 917 (Klebsiella pneumoniae [4]): 1.56 µg/mL (≈ 2.42 µM); MIC Klebsiella pneumoniae GN 4081 (Klebsiella pneumoniae [4]): 3.13 µg/mL (≈ 4.86 µM); MIC Proteus morganii (Proteus morganii): 1.56 µg/mL (≈ 2.42 µM) |
| CCN1CCN(C(=O)NC(C(=O)NC2C(=O)N3C(C(=O)O)=C(CSc4nnnn4CC)CSC23)c2ccc(O)cc2)C(=O)C1=O (single isomer, unassigned) [Compound No. 78] | 25 µg/mL (≈ 37.9 µM) | 12.5 µg/mL (≈ 18.9 µM) | 6.25 µg/mL (≈ 9.47 µM) | 12.5 µg/mL (≈ 18.9 µM) | 25 µg/mL (≈ 37.9 µM) | 25 µg/mL (≈ 37.9 µM) | 12.5 µg/mL (≈ 18.9 µM) | 25 µg/mL (≈ 37.9 µM) | 3.13 µg/mL (≈ 4.74 µM) | 3.13 µg/mL (≈ 4.74 µM) | 3.13 µg/mL (≈ 4.74 µM) | 1.56 µg/mL (≈ 2.36 µM) | 1.56 µg/mL (≈ 2.36 µM) | 0.39 µg/mL (≈ 0.591 µM) | 1.56 µg/mL (≈ 2.36 µM) | 0.2 µg/mL (≈ 0.303 µM) | 3.13 µg/mL (≈ 4.74 µM) | < 0.1 µg/mL | 0.79 µg/mL (≈ 1.2 µM) | 12.5 µg/mL (≈ 18.9 µM) | MIC Pseudomonas aeruginosa GN (Pseudomonas aeruginosa): 12.5 µg/mL (≈ 18.9 µM); MIC Escherichia coli GN 3435 (Escherichia coli): 0.39 µg/mL (≈ 0.591 µM); MIC Escherichia coli GN 3452 (Escherichia coli): 0.39 µg/mL (≈ 0.591 µM); MIC Escherichia coli GN 3465 (Escherichia coli): 1.56 µg/mL (≈ 2.36 µM); MIC Escherichia coli K-2 (Escherichia coli): 0.78 µg/mL (≈ 1.18 µM); MIC Escherichia coli K-4 (Escherichia coli): 0.39 µg/mL (≈ 0.591 µM); MIC Proteus mirabilis (Proteus mirabilis): 1.56 µg/mL (≈ 2.36 µM); MIC Klebsiella pneumoniae GN 917 (Klebsiella pneumoniae [4]): 0.39 µg/mL (≈ 0.591 µM); MIC Klebsiella pneumoniae GN 4081 (Klebsiella pneumoniae [4]): 3.13 µg/mL (≈ 4.74 µM); MIC Proteus morganii (Proteus morganii): 1.56 µg/mL (≈ 2.36 µM) |
| CCN1CCN(C(=O)NC(C(=O)NC2C(=O)N3C(C(=O)O)=C(CSc4nncs4)CSC23)c2ccc(O)cc2)C(=O)C1=O (single isomer, unassigned) [Compound No. 79] | 12.5 µg/mL (≈ 19.3 µM) | 12.5 µg/mL (≈ 19.3 µM) | 6.25 µg/mL (≈ 9.65 µM) | 6.25 µg/mL (≈ 9.65 µM) | 25 µg/mL (≈ 38.6 µM) | 12.5 µg/mL (≈ 19.3 µM) | 25 µg/mL (≈ 38.6 µM) | 25 µg/mL (≈ 38.6 µM) | 1.56 µg/mL (≈ 2.41 µM) | 3.13 µg/mL (≈ 4.83 µM) | 3.13 µg/mL (≈ 4.83 µM) | 1.56 µg/mL (≈ 2.41 µM) | 1.56 µg/mL (≈ 2.41 µM) | 0.39 µg/mL (≈ 0.602 µM) | 3.13 µg/mL (≈ 4.83 µM) | 0.79 µg/mL (≈ 1.22 µM) | 1.57 µg/mL (≈ 2.42 µM) | < 0.1 µg/mL | 3.13 µg/mL (≈ 4.83 µM) | 3.13 µg/mL (≈ 4.83 µM) | MIC Escherichia coli GN 3435 (Escherichia coli): 0.39 µg/mL (≈ 0.602 µM); MIC Escherichia coli GN 3452 (Escherichia coli): 0.39 µg/mL (≈ 0.602 µM); MIC Escherichia coli GN 3465 (Escherichia coli): 3.13 µg/mL (≈ 4.83 µM); MIC Escherichia coli K-2 (Escherichia coli): 1.56 µg/mL (≈ 2.41 µM); MIC Escherichia coli K-4 (Escherichia coli): 0.78 µg/mL (≈ 1.2 µM); MIC Proteus mirabilis (Proteus mirabilis): 1.56 µg/mL (≈ 2.41 µM); MIC Klebsiella pneumoniae GN 917 (Klebsiella pneumoniae [4]): 0.78 µg/mL (≈ 1.2 µM); MIC Klebsiella pneumoniae GN 4081 (Klebsiella pneumoniae [4]): 12.5 µg/mL (≈ 19.3 µM); MIC Proteus morganii (Proteus morganii): 1.56 µg/mL (≈ 2.41 µM) |
| Cn1nnnc1SCC1=C(C(=O)O)N2C(=O)C(NC(=O)C(NC(=O)N3CCN(CCO)C(=O)C3=O)c3ccccc3)C2SC1 (single isomer, unassigned) [Compound No. 82] | 50 µg/mL (≈ 77.4 µM) | 50 µg/mL (≈ 77.4 µM) | 25 µg/mL (≈ 38.7 µM) | 25 µg/mL (≈ 38.7 µM) | 50 µg/mL (≈ 77.4 µM) | 50 µg/mL (≈ 77.4 µM) | 50 µg/mL (≈ 77.4 µM) | 100 µg/mL (≈ 155 µM) | 3.13 µg/mL (≈ 4.85 µM) | 3.13 µg/mL (≈ 4.85 µM) | 3.13 µg/mL (≈ 4.85 µM) | 1.56 µg/mL (≈ 2.42 µM) | 1.56 µg/mL (≈ 2.42 µM) | 0.78 µg/mL (≈ 1.21 µM) | 6.25 µg/mL (≈ 9.68 µM) | 0.79 µg/mL (≈ 1.22 µM) | 1.57 µg/mL (≈ 2.43 µM) | < 0.1 µg/mL | 0.79 µg/mL (≈ 1.22 µM) | 25 µg/mL (≈ 38.7 µM) | MIC Pseudomonas aeruginosa GN (Pseudomonas aeruginosa): 50 µg/mL (≈ 77.4 µM); MIC Escherichia coli GN 3435 (Escherichia coli): 1.56 µg/mL (≈ 2.42 µM); MIC Escherichia coli GN 3452 (Escherichia coli): 1.56 µg/mL (≈ 2.42 µM); MIC Escherichia coli GN 3465 (Escherichia coli): 6.25 µg/mL (≈ 9.68 µM); MIC Escherichia coli K-2 (Escherichia coli): 6.25 µg/mL (≈ 9.68 µM); MIC Escherichia coli K-4 (Escherichia coli): 1.56 µg/mL (≈ 2.42 µM); MIC Proteus mirabilis (Proteus mirabilis): 3.13 µg/mL (≈ 4.85 µM); MIC Klebsiella pneumoniae GN 917 (Klebsiella pneumoniae [4]): 1.56 µg/mL (≈ 2.42 µM); MIC Klebsiella pneumoniae GN 4081 (Klebsiella pneumoniae [4]): 6.25 µg/mL (≈ 9.68 µM); MIC Proteus morganii (Proteus morganii): 1.56 µg/mL (≈ 2.42 µM) |
